Reference: patent US20100035866A1, “NOVEL SUBSTITUTED-1, 1-DIOXO-BENZO[1,2,4]THIADIAZIN-3ONES, PREPARATION METHOD THEREOF, AND PHARMACEUTICAL COMPOSITION CONTAINING THE SAME” (KOREA RESEARCH INSTITUTE OF CHEMICAL TECHNOLOGY, priority 2006, published 2010)

Legend:
5-HT2c = biological target: T1, 5-HT2c (Homo sapiens, UniProt P28335); experiment: Radioligand binding, 5-HT receptor family: 5-HT2c ([3H]Mesulergine); conditions: CHO-K1 human recombinant receptor, [3H]Mesulergine 1 nM; read-out: Binding affinity, IC50 (nM), 5-HT2c
T1 construct: purchased Euroscreen/BioSignal Packard Inc
T1 sequence (P28335 33-458): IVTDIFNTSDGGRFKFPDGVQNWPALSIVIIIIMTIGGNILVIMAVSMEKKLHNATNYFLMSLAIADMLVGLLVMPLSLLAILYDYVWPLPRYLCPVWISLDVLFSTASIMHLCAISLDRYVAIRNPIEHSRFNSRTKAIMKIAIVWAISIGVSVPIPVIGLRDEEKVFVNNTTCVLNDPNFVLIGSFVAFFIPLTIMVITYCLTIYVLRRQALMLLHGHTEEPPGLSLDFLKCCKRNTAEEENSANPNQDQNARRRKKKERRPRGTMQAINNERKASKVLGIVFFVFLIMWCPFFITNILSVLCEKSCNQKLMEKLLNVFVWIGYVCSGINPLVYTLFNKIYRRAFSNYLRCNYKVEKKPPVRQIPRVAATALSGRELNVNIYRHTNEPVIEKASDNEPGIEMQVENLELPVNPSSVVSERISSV

5-HT1a = biological target: T2, 5-HT1a (Homo sapiens, UniProt P08908); experiment: Radioligand binding, 5-HT receptor family: 5-HT1a ([3H]8-OH-DPAT); conditions: CHO-K1 human recombinant receptor, [3H]8-OH-DPAT 0.5 nM; read-out: Binding affinity, IC50 (nM), 5-HT1a
T2 construct: purchased Euroscreen/BioSignal Packard Inc
T2 sequence (P08908 1-422): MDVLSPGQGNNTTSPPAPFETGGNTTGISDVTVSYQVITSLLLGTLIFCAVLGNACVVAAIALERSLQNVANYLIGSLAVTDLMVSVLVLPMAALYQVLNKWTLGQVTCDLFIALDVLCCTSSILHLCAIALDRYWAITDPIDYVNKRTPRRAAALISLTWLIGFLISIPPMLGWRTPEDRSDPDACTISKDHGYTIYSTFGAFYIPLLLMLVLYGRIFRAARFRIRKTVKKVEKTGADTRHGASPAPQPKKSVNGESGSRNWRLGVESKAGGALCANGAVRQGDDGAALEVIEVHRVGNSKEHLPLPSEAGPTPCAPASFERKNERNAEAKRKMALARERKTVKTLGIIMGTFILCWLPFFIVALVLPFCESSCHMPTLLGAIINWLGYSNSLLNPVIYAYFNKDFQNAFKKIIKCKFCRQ

hD4.2 receptor = biological target: T3, hD4.2 receptor (Homo sapiens, UniProt P21917, DEL265-296); experiment: Dopamine receptor family binding: D4 ([3H]YM-09151-2); conditions: [3H]YM-09151-2 0.06 nM; read-out: Binding affinity, IC50 (nM), D4
T3 construct: purchased BioSignal Packard Inc., Montreal, Canada
T3 sequence (P21917 with tags, fused parts or gaps DEL265-296): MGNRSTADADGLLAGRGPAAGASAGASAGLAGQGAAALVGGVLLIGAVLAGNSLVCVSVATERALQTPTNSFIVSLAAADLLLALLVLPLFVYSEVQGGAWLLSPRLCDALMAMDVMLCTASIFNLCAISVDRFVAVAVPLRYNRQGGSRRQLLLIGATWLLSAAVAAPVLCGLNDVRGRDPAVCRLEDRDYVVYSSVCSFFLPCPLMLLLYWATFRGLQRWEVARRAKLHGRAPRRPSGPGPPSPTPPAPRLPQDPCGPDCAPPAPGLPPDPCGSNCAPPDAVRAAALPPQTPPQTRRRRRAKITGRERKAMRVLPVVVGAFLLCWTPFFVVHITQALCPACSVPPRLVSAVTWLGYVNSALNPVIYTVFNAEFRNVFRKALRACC
Procedure: (§1) 2-2: Binding Assays of Dopamine Receptor Family
(§2) The radioligands used were [^3H]spiperone (for hD2L and hD3 receptors, 1 nM) and [^3H] YM-09151-2 (for hD4.2 receptor, 0.06 nM). Radioligand bindings were performed by the protocols provided by the supplier of receptor membranes (BioSignal Packard Inc., Montreal, Canada). Briefly, the buffer used in D2 or D3 receptor binding assay was 50 mM Tris-HCl (pH 7.4), 10 mM MgCl2, 1 mM EDTA, or 50 mM Tris-HCl (pH 7.4), 5 mM MgCl2 5 mM EDTA, 5 mM KCl, 1.5 mM CaCl2, 120 mM NaCl, respectively. In [^3H] YM-09151-2 receptor binding assays, the buffer containing 50 mM Tris-HCl (pH 7.4), 5 mM MgCl2, 5 mM EDTA, 5 mM KCl and 1.5 mM CaCl2 was used. […] Competition binding studies were carried out with 7-8 concentrations of the test compound run in duplicate tubes, and isotherms from three assays were calculated by computerized nonlinear regression analysis (GraphPad Prism Program, San Diego, […]) to yield median inhibitory concentration (IC50) values.

D1 = D1 (Homo sapiens, UniProt P21728); experiment: Dopamine receptor family binding: D1; conditions: read-out: Binding affinity, IC50 (nM), D1
hD3 receptor = biological target: T4, hD3 receptor (Homo sapiens, UniProt P35462); experiment: Dopamine receptor family binding: D3 ([3H]spiperone); conditions: [3H]spiperone 1 nM; read-out: Binding affinity, IC50 (nM), D3
T4 construct: purchased BioSignal Packard Inc., Montreal, Canada

5-HT2a = biological target: T5, 5-HT2a (Homo sapiens, UniProt P28223); experiment: Radioligand binding, 5-HT receptor family: 5-HT2a ([3H]Ketanserin); conditions: CHO-K1 human recombinant receptor, [3H]Ketanserin 1 nM; read-out: Binding affinity, IC50 (nM), 5-HT2a
T5 construct: purchased Euroscreen/BioSignal Packard Inc

hD2L receptor = biological target: T6, hD2L receptor (Homo sapiens, UniProt P14416); experiment: Dopamine receptor family binding: D2 ([3H]spiperone); conditions: [3H]spiperone 1 nM; read-out: Binding affinity, IC50 (nM), D2
T6 construct: purchased BioSignal Packard Inc., Montreal, Canada
Procedure: as §1, §2

5-HT7 = biological target: T7, 5-HT7 (Homo sapiens, UniProt P34969); experiment: Radioligand binding, 5-HT receptor family: 5-HT7 ([3H]LSD); conditions: CHO-K1 human recombinant receptor, [3H]LSD 3 nM; read-out: Binding affinity, IC50 (nM), 5-HT7
T7 construct: purchased Euroscreen/BioSignal Packard Inc
Procedure: Radioligand bindings were performed according to the test method provided by the supplier of receptor membrane (Euroscreen/BioSignal Packard Inc.). The detailed assay conditions and the results were shown in the following Table 3 and Table 4, respectively.

[1] = biological target: Human serotonin 5-HT6 receptor (Homo sapiens, UniProt P50406); experiment: [3H]LSD binding assay on cloned 5-HT6 receptor; conditions: IC50 (nM)
[2] = Binding affinity, 5-HT6, Table 4
[3] = binding affinity to the 5-HT6 receptor, Table 2, 1.87 nM [3H]LSD, cloned human receptor membranes from Sf21 cells, 37° C. 60 min

Chain of D1 (P21728 whole entry): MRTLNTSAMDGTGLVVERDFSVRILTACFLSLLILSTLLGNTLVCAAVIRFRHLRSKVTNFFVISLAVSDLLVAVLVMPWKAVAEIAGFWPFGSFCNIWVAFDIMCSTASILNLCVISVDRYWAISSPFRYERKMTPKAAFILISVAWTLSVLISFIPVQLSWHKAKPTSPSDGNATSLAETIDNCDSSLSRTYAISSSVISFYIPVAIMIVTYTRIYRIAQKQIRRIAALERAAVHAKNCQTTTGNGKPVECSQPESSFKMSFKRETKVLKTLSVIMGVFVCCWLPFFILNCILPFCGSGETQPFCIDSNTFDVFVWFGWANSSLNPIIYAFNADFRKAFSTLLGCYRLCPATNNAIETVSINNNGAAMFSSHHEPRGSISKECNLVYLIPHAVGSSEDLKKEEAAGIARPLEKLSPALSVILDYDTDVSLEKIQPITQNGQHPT
T4 sequence (P35462 whole entry): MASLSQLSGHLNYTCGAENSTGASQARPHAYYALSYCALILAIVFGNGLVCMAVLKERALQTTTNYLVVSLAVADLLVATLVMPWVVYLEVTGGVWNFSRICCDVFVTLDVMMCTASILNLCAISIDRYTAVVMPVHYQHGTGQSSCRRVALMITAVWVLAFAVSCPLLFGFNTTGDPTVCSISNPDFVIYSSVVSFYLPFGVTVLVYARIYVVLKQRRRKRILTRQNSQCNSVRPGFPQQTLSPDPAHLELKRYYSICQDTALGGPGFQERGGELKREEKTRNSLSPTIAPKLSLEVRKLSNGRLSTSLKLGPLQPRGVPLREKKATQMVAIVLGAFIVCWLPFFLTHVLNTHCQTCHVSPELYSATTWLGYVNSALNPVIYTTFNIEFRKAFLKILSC
T7 sequence (P34969 whole entry): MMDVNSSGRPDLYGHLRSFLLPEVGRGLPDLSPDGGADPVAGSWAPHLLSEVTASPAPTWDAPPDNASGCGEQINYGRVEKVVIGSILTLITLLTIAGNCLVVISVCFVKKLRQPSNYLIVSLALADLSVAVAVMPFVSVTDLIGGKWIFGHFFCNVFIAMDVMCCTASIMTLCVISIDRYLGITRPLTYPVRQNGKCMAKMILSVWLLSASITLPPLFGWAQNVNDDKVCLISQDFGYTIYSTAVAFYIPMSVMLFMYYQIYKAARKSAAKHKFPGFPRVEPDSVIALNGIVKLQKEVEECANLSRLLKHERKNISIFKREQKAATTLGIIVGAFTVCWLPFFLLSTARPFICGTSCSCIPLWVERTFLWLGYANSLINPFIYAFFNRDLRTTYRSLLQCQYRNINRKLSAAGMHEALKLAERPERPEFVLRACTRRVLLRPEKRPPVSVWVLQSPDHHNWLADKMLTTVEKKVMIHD
Chain of Human serotonin 5-HT6 receptor (P50406 whole entry): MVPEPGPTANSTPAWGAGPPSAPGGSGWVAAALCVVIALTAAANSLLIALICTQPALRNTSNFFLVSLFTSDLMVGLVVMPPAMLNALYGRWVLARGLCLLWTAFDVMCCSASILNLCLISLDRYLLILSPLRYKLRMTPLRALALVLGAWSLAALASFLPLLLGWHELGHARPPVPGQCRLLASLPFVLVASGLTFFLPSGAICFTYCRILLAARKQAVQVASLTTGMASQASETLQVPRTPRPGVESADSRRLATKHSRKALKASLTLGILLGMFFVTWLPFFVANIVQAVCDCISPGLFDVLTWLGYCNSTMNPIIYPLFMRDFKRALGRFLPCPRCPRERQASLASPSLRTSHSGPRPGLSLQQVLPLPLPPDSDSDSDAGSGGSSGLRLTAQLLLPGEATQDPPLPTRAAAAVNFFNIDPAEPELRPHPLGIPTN
T5 sequence (P28223 whole entry): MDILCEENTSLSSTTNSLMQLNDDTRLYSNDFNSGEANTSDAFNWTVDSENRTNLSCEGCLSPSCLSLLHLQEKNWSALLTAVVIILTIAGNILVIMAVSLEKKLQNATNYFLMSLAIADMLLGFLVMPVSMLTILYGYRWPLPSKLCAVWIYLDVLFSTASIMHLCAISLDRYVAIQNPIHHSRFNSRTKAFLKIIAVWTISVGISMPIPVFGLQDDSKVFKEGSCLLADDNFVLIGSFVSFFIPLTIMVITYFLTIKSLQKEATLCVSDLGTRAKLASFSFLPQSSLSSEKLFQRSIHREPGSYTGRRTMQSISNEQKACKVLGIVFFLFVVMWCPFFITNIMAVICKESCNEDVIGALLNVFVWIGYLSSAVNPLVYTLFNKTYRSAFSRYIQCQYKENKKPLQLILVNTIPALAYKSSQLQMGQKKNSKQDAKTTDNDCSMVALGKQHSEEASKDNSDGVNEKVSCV
T6 sequence (P14416 whole entry): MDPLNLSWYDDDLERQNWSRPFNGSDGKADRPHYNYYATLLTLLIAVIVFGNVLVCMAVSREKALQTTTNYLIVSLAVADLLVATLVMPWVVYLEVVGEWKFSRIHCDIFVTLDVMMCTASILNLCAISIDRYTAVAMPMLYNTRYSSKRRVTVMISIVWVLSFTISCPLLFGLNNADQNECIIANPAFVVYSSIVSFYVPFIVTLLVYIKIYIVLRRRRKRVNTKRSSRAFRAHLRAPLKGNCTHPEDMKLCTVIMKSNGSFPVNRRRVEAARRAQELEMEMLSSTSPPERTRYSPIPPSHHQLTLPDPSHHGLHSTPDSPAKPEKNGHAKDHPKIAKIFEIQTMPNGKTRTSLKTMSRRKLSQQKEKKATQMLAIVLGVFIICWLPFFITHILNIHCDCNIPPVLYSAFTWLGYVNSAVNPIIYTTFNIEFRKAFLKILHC

Compound	IC50 (5-HT2c)	IC50 (5-HT1a)	IC50 (hD4.2 receptor)	melting point	IC50 (D1)	IC50 (hD3 receptor)	IC50 (5-HT2a)	IC50 (hD2L receptor)	IC50 (5-HT7)	IC50 [1, 2]	IC50 [1, 3]
COc1cccc(CN2C(=O)N(Cc3ccccc3)c3cc(Cl)cc(N4CCN(C)CC4)c3S2(=O)=O)c1 [Example 17, 4-Benzyl-6-chloro-2-(3-methoxy-benzyl)-8-(4-methyl-piperazin-1-yl)-1,1-dioxo-1,4-dihydro-2H-1λ^6-benzo[1,2,4]thiadiazin-3-one]	899 nM	1950 nM	> 10000 nM	85 to 86 °C	4730 nM	537 nM	318 nM	4860 nM	> 10000 nM	10.9 nM	10.6 nM
C[C@@H](c1ccccc1)N1C(=O)N(Cc2ccccc2)c2cc(Cl)cc(N3CCN(C)CC3)c2S1(=O)=O [Example 26, 4-Benzyl-6-chloro-8-(4-methyl-piperazin-1-yl)-1,1-dioxo-2-[(S)-1-phenyl-ethyl]-1,4-dihydro-2H-1λ^6-benzo[1,2,4]thiadiazin-3-one]	183 nM	589 nM	> 10000 nM		1760 nM	715 nM	145 nM	6580 nM	8250 nM	2.4 nM	2.4 nM
CN1CCN(c2cc(Cl)cc3c2S(=O)(=O)N(c2ccccc2)C(=O)N3Cc2ccccc2)CC1 [Example 27, 4-Benzyl-6-chloro-8-(4-methyl-piperazin-1-yl)-1,1-dioxo-2-phenyl-1,4-dihydro-2H-1λ^6-benzo[1,2,4]thiadiazin-3-one]	2580 nM	2080 nM	> 10000 nM		2690 nM	5950 nM	4310 nM	> 10000 nM	> 10000 nM	3.8 nM	3.8 nM
Cc1cc(C)cc(CCCN2C(=O)N(Cc3ccccc3)c3cc(Cl)cc(N4CCN(C)CC4)c3S2(=O)=O)c1 [Example 38, 4-Benzyl-6-chloro-2-[3-(3,5-dimethyl-phenyl)-propyl]-8-(4-methyl-piperazin-1-yl)-1,1-dioxo-1,4-dihydro-2H-1λ^6-benzo[1,2,4]thiadiazin-3-one]	508 nM	3420 nM	> 10000 nM		918 nM	336 nM	359 nM	> 10000 nM	9140 nM	0.6 nM	0.6 nM
COc1cccc(CN2C(=O)N(Cc3ccccc3)c3cc(Cl)cc(N4CCNCC4)c3S2(=O)=O)c1 [Example 52, 4-Benzyl-6-chloro-2-(3-methoxy-benzyl)-1,1-dioxo-8-piperazin-1-yl-1,4-dihydro-2H-1λ^6-benzo[1,2,4]thiadiazin-3-one]	1350 nM	1860 nM	> 10000 nM	98 to 100 °C	3140 nM	531 nM	1000 nM	3220 nM	6780 nM	2 nM	5.8 nM
COc1ccc(CN2C(=O)N(Cc3ccccc3)c3cc(Cl)cc(N4CCNCC4)c3S2(=O)=O)cc1 [Example 53, 4-Benzyl-6-chloro-2-(4-methoxy-benzyl)-1,1-dioxo-8-piperazin-1-yl-1,4-dihydro-2H-1λ^6-benzo[1,2,4]thiadiazin-3-one]	961 nM	3260 nM	> 10000 nM		> 10000 nM	844 nM	651 nM	2440 nM	6580 nM	11.8 nM	11.8 nM
O=C1N(Cc2ccccc2)c2cc(Cl)cc(N3CCNCC3)c2S(=O)(=O)N1Cc1cccc(O)c1 [Example 54, 4-Benzyl-6-chloro-2-(3-hydroxy-benzyl)-1,1-dioxo-8-piperazin-1-yl-1,4-dihydro-2H-1λ^6-benzo[1,2,4]thiadiazin-3-one]	1800 nM	621 nM	> 10000 nM	230 to 231 °C	4100 nM	804 nM	1150 nM	2280 nM	> 10000 nM	5.8 nM	1 nM
C[C@H](c1ccccc1)N1C(=O)N(Cc2ccccc2)c2cc(Cl)cc(N3CCNCC3)c2S1(=O)=O [Example 58, 4-Benzyl-6-chloro-1,1-dioxo-2-[(R)-1-phenyl-ethyl]-8-piperazin-1-yl-1,4-dihydro-2H-1λ^6-benzo[1,2,4]thiadiazin-3-one]	424 nM	> 10000 nM	> 10000 nM		1780 nM	398 nM	549 nM	4500 nM	6390 nM	2.3 nM	2.3 nM
C[C@@H](c1ccccc1)N1C(=O)N(Cc2ccccc2)c2cc(Cl)cc(N3CCNCC3)c2S1(=O)=O [Example 59, 4-Benzyl-6-chloro-1,1-dioxo-2-[(S)-1-phenyl-ethyl]-8-piperazin-1-yl-1,4-dihydro-2H-1λ^6-benzo[1,2,4]thiadiazin-3-one]	508 nM	1400 nM	> 10000 nM		4100 nM	403 nM	272 nM	4640 nM	2300 nM	3 nM	3 nM
COc1cccc(N2C(=O)N(Cc3ccccc3)c3cc(Cl)cc(N4CCNCC4)c3S2(=O)=O)c1 [Example 62, 4-Benzyl-6-chloro-2-(3-methoxy-phenyl)-1,1-dioxo-8-piperazin-1-yl-1,4-dihydro-2H-1λ^6-benzo[1,2,4]thiadiazin-3-one]	4960 nM	926 nM	> 10000 nM		5590 nM	2370 nM	3170 nM	> 10000 nM	> 10000 nM	10.2 nM	10.2 nM
